US7858588B2, “Immunostimulatory oligodeoxynucleic molecules” (Intercell AG, priority 2001, dated 2010)
Entries after “also recorded” stand apart in the source; their conditions may differ.

What was measured:
Assay type in all cases: in vivo, Mice C57BI/6
[1] = tested on: melanoma-derived peptide TRP-2181-188 (TRP-2181-188-specific T cells); experiment: IFN-γ ELISPOT on draining lymph node cells after footpad injection of TRP-2181-188 peptide with ODN; conditions: for TRP-2181-188-specific immune response (number of IFN-γ-producing cells/1×10^6 lymph node cells) with co-injection of poly-L-arginine: ODN 5 nmol/mouse + TRP-2181-188 100 μg/mouse + pR60 100 μg/mouse; for TRP-2181-188-specific immune response (number of IFN-γ-producing cells/1×10^6 lymph node cells) with co-injection of poly-L-arginine / TRP-2181-188-specific immune response (number of IFN-γ-producing cells/1×10^6 lymph node cells): hind footpads; for TRP-2181-188-specific immune response (number of IFN-γ-producing cells/1×10^6 lymph node cells) / TRP-2181-188-specific immune response (IFN-γ-producing cells), FIG. 7-9: ODN 5 nmol/mouse + TRP-2181-188 100 μg/mouse; for TRP-2181-188-specific immune response (number of IFN-γ-producing cells/1×10^6 lymph node cells): no poly-L-arginine, lymph nodes 4 days later; for TRP-2181-188-specific immune response (IFN-γ-producing cells), FIG. 7-9: groups with and without pR 60, 4 days
Procedure: (§1) Animals were sacrificed 4 days after injection and popliteal lymph nodes were harvested. Lymph nodes were passed through a 70 μm cell strainer and washed twice with DMEM medium (GIBCO BRL) containing 5% fetal calf serum (FCS, SIGMA chemicals). Cells were adjusted to the appropriate cell number in DMEM/5%/FCS. An IFN-γ ELISPOT assay was carried out in triplicates as described (Miyahira et al., 1995). This method is a widely used procedure allowing the quantification of antigen-specific T cells. Lymphocytes were stimulated ex vivo in triplicates with medium (background-control), TRP-2181-188-peptide, an irrelevant peptide OVA257-264, pR 60, U-ODN13 and Concanavalin A (Con A). Spots representing single IFN-γ producing T cells were counted and the number of background spots was substracted from all samples. The high number of spots detected after the stimulation with Con A (data not shown) indicates a good condition of the used lymphocytes. For each experimental group of mice the number of IFN-γ-producing cells/1×10^6 cells are illustrated in FIG. 1, the standard deviation of ex vivo-stimulated triplicates is given.
as §1, with “U-ODN15” for “U-ODN13”, “5,” for “1,”
as §1, with “U-ODN 16, ODN 20” for “pR 60, U-ODN13”, “6,” for “1,”
Animals were sacrificed 4 days after injection and popliteal lymph nodes were harvested. Lymph nodes were passed through a 70 μm cell strainer and washed twice with DMEM medium (GIBCO BRL) containing 5% fetal calf serum (FCS, SIGMA chemicals). Cells were adjusted to the appropriate cell number in DMEM/5%/FCS. An IFN-γ ELISPOT assay was carried out in triplicates as described (Miyahira et al., 1995). This method is a widely used procedure allowing the quantification of antigen-specific T cells. […]

[2] = tested on: ovalbumin-derived peptide OVA257-264; experiment: IFN-γ ELISPOT on draining lymph node cells after footpad injection of OVA257-264 peptide with ODN; conditions: ODN 5 nmol/mouse + OVA257-264 300 μg/mouse, no pR60, 4 days
Procedure: as §1, with “duplicates” for “triplicates”, “OVA257-264 peptide,” for “TRP-2181-188-peptide,”, “TRP-2181-188,” for “OVA257-264,”, “3,” for “1,”

[3] = tested on: mouse mastocytoma-derived peptide P1A35-43; experiment: IFN-γ ELISPOT on draining lymph node cells after footpad injection of P1A35-43 peptide with ODN
Procedure: as §1, with “P1A35-43 peptide,” for “TRP-2181-188-peptide,”, “CSP (SYVPSAEQI, SEQ ID NO:18),” for “OVA257-264,”, “U-ODN 13” for “U-ODN13”, “spots/1×10^6” for “IFN-γ-producing cells/1×10^6”, “4,” for “1,”

Substance: hhh wdu dhh h [U-ODN 16]
- TRP-2181-188-specific immune response (IFN-γ-producing cells), 10mer cocktail ([1]; ODN 10 nmol/mouse + TRP-2181-188 100 μg/mouse, no pR60, compared to peptide alone or with ODN 20, 4 days): strong immune response

Substance: nhh hhh wdu dhh hhh hhh wn [U-ODN 15]
- TRP-2181-188-specific immune response (IFN-γ-producing cells) at 10 times less ODN ([1]; ODN 0.5 nmol/mouse + TRP-2181-188 100 μg/mouse, 4 days): strong immune response could be induced
- TRP-2181-188-specific immune response (number of IFN-γ-producing cells/1×10^6 lymph node cells) with co-injection of poly-L-arginine ([1]; 4 days): does not influence this strong response; also recorded: strong immune response
- TRP-2181-188-specific immune response (number of IFN-γ-producing cells/1×10^6 lymph node cells) [1]: strongly enhances; also recorded: strong immune response

Substance: tcc atg acu ttc ctg atg ct [U-ODN 13] (TCCATGACUTTCCTGATGCT; chemistry not given here)
- TRP-2181-188-specific immune response (number of IFN-γ-producing cells/1×10^6 lymph node cells) with co-injection of poly-L-arginine ([1]; 4 days): strong immune response; also recorded: does not influence this strong response
- TRP-2181-188-specific immune response (number of IFN-γ-producing cells/1×10^6 lymph node cells) [1]: strong immune response; also recorded: strongly enhances
- TRP-2181-188-specific T cells / immune response compared to CpG-ODN 1668 ([1]; ODN 5 nmol/mouse vs CpG 1668 5 nmol/mouse, each with TRP-2181-188, 4 days): higher number
- OVA257-264-specific immune response (IFN-γ-producing cells/1×10^6 lymph node cells) [2]: induces an immune response
- P1A35-43-specific immune response with co-injection of poly-L-arginine ([3]; ODN 5 nmol/mouse + P1A35-43 100 μg/mouse + pR60 100 μg/mouse, 4 days): further enhanced
- P1A35-43-specific immune response (IFN-γ-producing cells/1×10^6 lymph node cells) ([3]; ODN 5 nmol/mouse + P1A35-43 100 μg/mouse, no pR60, 4 days): strong immune response

Substance: tcc atg acu ttc ctg atg ct [U-ODN 13b] (DNA TCCATGACUTTCCTGCTGATGCT; DNA, backbone and methylation of C not given here; further chemistry not fully specified)
- TRP-2181-188-specific immune response (number of IFN-γ-producing cells/1×10^6 lymph node cells) with co-injection of poly-L-arginine ([1]; 4 days): only after co-injection of poly-L-arginine a strong peptide-specific immune response is induced; also recorded: only upon co-injection of poly-L-arginine a high immune response was induced

Substance: uau aua uau aua uau aua uau aua ua (UAUAUAUAUAUAUAUAUAUAUAUAUA; DNA, all phosphorothioate, T or U not given here) [U-ODN 21]
- TRP-2181-188-specific immune response (IFN-γ-producing cells), FIG. 7-9 [1]: generation of specific immune responses

Substance: uiu iui uiu iui uiu iui uiu iui ug [U-ODN 22]
- TRP-2181-188-specific immune response (IFN-γ-producing cells), FIG. 7-9 [1]: generation of specific immune responses

Substance: uuu uuu uuu uuu uuu uuu uuu uuu ut (UUUUUUUUUUUUUUUUUUUUUUUUUT; DNA, all phosphorothioate, T or U not given here) [U-ODN 24]
- TRP-2181-188-specific immune response (IFN-γ-producing cells), FIG. 7-9 [1]: generation of specific immune responses
